Here are results for 14 compounds from patent publication US5648382A, “Cyclohexane compounds” (Adir et Compagnie, priority 1995, dated 1997).

The structures appear in SMILES notation.

The test system of the first assay is chicken embryo chorio-allantoic membrane. The experiment in a line: Inhibition of neovascularization of chicken embryo chorioallantoic membrane. The format is in vivo. As to conditions: avascular zone greater than 4 mm in diameter, 48 hours after disk placed on CAM on day 6. Here is the method: Example B: Inhibition of Neovascularization of Chicken Embryo Chorioallantoic Membrane
This test was carried out with chicken embryos in the manner described above (Crum R., Szabo S. and Folkman J., Science, (1985), 230, 1375-1378). The fertilized eggs are incubated at 37° C. (D0). A pocket of air is created by removing 1 ml of albumin (D3), then a window is cut from the shell (D4) and the vitelline membrane is removed in order to separate the chorio-allantoic membrane (CAM).
The products to be tested are dissolved in ethanol and placed on methylcellulose disks which are dried and placed on the CAM on day 6. From 8 to 16 eggs are used per group. The zone situated round the disk is then examined 48 hours later. The eggs having an avascular zone greater than 4 mm in diameter are counted and the results are expressed as a percentage of eggs having an avascular zone.
Consider `O=C(CCl)NC(=O)O[C@H]1CC[C@]2(CO2)[C@](O)(C2OC2CCCc2ccccc2)[C@H]1Br` (single isomer, unassigned) [Example 13], for which the “% of eggs having an avascular zone” value came to 70 ± 16%.
On the same count and under the same terms, in the case of `C[C@@]1(OC(=O)NC(=O)CCl)CC[C@@H](OC(=O)NC(=O)CCl)[C@@H]2O[C@@]21CCCCCc1ccccc1` (relative stereo) [Example 19, (1S*,2R*,5R,*6S*)-2,5-Dichloroacetylcarbamoyloxy-2-methyl-1-(5-phenylpentyl)-7-oxabicyclo[4.1.0]heptane] it was 76 ± 9%.
Consider `CC1([C@]23O[C@H]2[C@H](OC(=O)NC(=O)CCl)CC[C@]32CO2)CO1` (single isomer, unassigned) [Example 30 Diastereoisomer A, (1R*,2S*,5R*,6S*)-5-Chloroacetylcarbamoyloxy-1-[(2S* and 2R*)-(2-methyloxiran-2-yl)]-2-(2-spiro-oxiranyl)-7-oxabicyclo[4.1.0]heptan], for which the “% of eggs having an avascular zone” value amounted to 75 ± 7%.
On the same count and under the same terms, in the case of `CC1([C@]23O[C@H]2[C@H](OC(=O)NC(=O)CCl)CC[C@]32CO2)CO1` (single isomer, unassigned) [Example 30 Diastereoisomer B, (1R*,2S*,5R*,6S*)-5-Chloroacetylcarbamoyloxy-1-[(2S* and 2R*)-(2-methyloxiran-2-yl)]-2-(2-spiro-oxiranyl)-7-oxabicyclo[4.1.0]heptan] it was 68 ± 5%; in that of `CC(C)CCCC12OC1C(OC(=O)NC(=O)CCl)CCC21CO1` (stereo not drawn) [Example 21, 5-Chloroacetylcarbamoyloxy-2-(2-spiro-oxiranyl)-1-(4-methyl-pentyl)-7-oxabicyclo[4.1.0]heptane], 76 ± 6%.
Same read-out and setting: in the case of `O=C(CCl)NC(=O)O[C@@H]1CC[C@]2(CO2)[C@@](O)(CCCCCc2ccccc2)[C@@H]1Br` (relative stereo) [Example 10, (3S*, 4S*, 5R*, 6R*)-5-Bromo-6-chloroacetylcarbamoyloxy-4-hydroxy-4-(5-phenylpentyl)-1-oxa-spiro[2.5]octane] it was 73 ± 11%; in that of `CC1([C@@]23OC(=O)O[C@@H]2[C@H](OC(=O)NC(=O)CCl)CC[C@]32CO2)CO1` (relative stereo) [Example 23, (3S*,4S*,5R*,6R*)-6-Chloroacetylcarbamoyloxy-4-(2-methyl-oxiran-2-yl)-1-oxa-spiro[2.8]benzo[1.3]dioxol-2-one], 78 ± 7%; in that of `CC1OC1(C)[C@@]1(O)C[C@H](OC(=O)NC(=O)CCl)CC[C@]12CO2` (relative stereo) [Example 6, (3S*, 4R*, 6R*)-6-Chloroacetylcarbamoyloxy-4-hydroxy-4-(2,3-dimethyloxiran-2-yl)-1-oxa-spiro[2.5]octane], 79 ± 9%.
The same measure, in the same setting: with `O=C(CCl)NC(=O)O[C@H]1CC[C@]2(CO2)[C@@](CCCCCc2ccccc2)(OC(=O)NC(=O)CCl)C1` (relative stereo) [Example 28, (3S*,4S*6S*)-4,6-Dichloroacetylcarbamoyloxy-4-(5-phenylpentyl)-1-oxa-spiro[2.5]octane] the figure was 90 ± 4%.
In the case of `C=C(C)[C@]12O[C@H]1[C@H](OC(=O)NC(=O)CCl)CC[C@]21CO1` (relative stereo) [Example 29, (1S*,2S*,5R*,6S*)-5-Chloroacetylcarbamoyloxy-1-isopropenyl-2(2-spiro-oxiranyl)-7-oxabicyclo[4.1.0]heptane], the “% of eggs having an avascular zone” value is 66 ± 6%.
With `CC1([C@]23O[C@H]2[C@@H](OC(=O)NC(=O)CCl)CC[C@]32CO2)CO1` (single isomer, unassigned) [Example 17 Diastereoisomer A, (1R*,2S*,5S*,6S*)-5-Chloroacetylcarbamoyloxy-1-[(2S* and 2R*)-(2-methyloxiran-2-yl)]-2-(2-spiro-oxiranyl)-7-oxabicyclo[4.1.0]heptan], the “% of eggs having an avascular zone” value is recorded as 74 ± 7%.
For `CC1OC1(C)[C@@]1(O)C[C@H](OC(=O)NC(=O)CCl)CC[C@]12CO2` (relative stereo) [Example 7, (3S*; 4R*, 6R*)-6-Chloroacetylcarbamoyloxy-4-hydroxy-4-(2,3-di-methyl-2-oxiranyl)-1-oxa-spiro[2.5]octane], the “% of eggs having an avascular zone” value stood at 81 ± 10%.
`O=C(CCl)NC(=O)O[C@@H]1CC[C@]2(CO2)[C@@]2(CCCCCc3ccccc3)O[C@@H]12` (relative stereo) [Example 18, (1S*,2S*,5R*,6S*)-5-Chloroacetylcarbamoyloxy-2-(2-spiro-oxiranyl)-1-(5-phenyl-pentyl)-7-oxabicyclo[4.1.0]heptane]: the “% of eggs having an avascular zone” value is 69 ± 6%.

The subject of the next assay is tumour. The experiment in a line: Antitumour activity in mice, subcutaneous tumour implant. The format is in vivo. As to conditions: 30 mg/kg, i.p., day 1 to day 12; tumour weight on day 13. Here is the method:
Example C: Antitumour Activity
The antitumour activity of the compounds of the invention was studied in accordance with the protocol described by R. I. Geran et al, Cancer Chemotherapy Reports, (1972), Part 3, pages 3 et seq.
Mice were divided at random into treated groups (11 mice per group) and a control group of 40 mice.
Tumour fragments were implanted on day 0 (subcutaneous implant). The compounds to be tested were administered for 12 days (day 1 to day 12) by the i.p. route.
The average weight of the tumour was determined on day 13 after implantation. The percentage inhibition was calculated in accordance with the following formula: [formula] As an example, the compound of Example 27 gave the following results: […]
Turning to `O=C(CCl)NC(=O)O[C@@H]1CC[C@]2(CO2)[C@](CCCCCc2ccccc2)(OC(=O)NC(=O)CCl)C1` (relative stereo) [Example 27, (3S*,4R*,6R*)-4,6-Dichloroacetylcarbamoyloxy-4-(5-phenylpentyl)-1-oxa-spiro[2.5]octane], the “% inhibition (tumour weight)” value was 56%.

The assay is the same for the next values; noted with them: 60 mg/kg, i.p., day 1 to day 12; tumour weight on day 13.
In the case of `O=C(CCl)NC(=O)O[C@@H]1CC[C@]2(CO2)[C@](CCCCCc2ccccc2)(OC(=O)NC(=O)CCl)C1` (relative stereo) [Example 27, (3S*,4R*,6R*)-4,6-Dichloroacetylcarbamoyloxy-4-(5-phenylpentyl)-1-oxa-spiro[2.5]octane], the “% inhibition (tumour weight)” value worked out at 82%.
